Experimental data as given in patent US20260250290A1 (BRISTOL-MYERS SQUIBB COMPANY, priority 2023, published 2026).
Counter-ions that a name gives are not always drawn.

target: T1, SGK1 (Homo sapiens, UniProt O00141); test: SGK1 inhibition Assay B (Echo mass spectrometry of phosphorylated peptide product); assay type: biochemical; details: 60 min at room temperature
T1 sequence (O00141 1-431): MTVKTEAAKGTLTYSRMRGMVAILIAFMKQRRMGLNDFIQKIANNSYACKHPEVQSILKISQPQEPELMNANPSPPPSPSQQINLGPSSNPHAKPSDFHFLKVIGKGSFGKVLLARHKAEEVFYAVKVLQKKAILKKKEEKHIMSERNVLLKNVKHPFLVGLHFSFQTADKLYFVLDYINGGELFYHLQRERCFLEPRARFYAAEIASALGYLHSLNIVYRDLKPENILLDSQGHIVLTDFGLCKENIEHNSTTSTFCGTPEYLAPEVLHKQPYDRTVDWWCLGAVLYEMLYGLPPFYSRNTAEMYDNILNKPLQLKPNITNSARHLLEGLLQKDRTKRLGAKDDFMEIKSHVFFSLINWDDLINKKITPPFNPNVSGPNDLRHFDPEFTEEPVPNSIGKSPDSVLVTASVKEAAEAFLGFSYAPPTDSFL

IC50	Structure (SMILES)
3 nM	Nc1ncnn2c(-c3ccnc(C(F)F)c3)cc(N3CCC[C@@H](NC(=O)c4ccc(C(F)F)s4)C3)c12 [Example 482, (R)-N-(1-(4-amino-7-(2-(difluoromethyl)pyridin-4-yl)pyrrolo[2,1-f][1,2,4]triazin-5-yl)piperidin-3-yl)-5-(difluoromethyl)thiophene-2-carboxamide]
1 nM	[2H]C([2H])([2H])c1nc(O[C@H]2CC[C@@H](N(C)C)CC2)c(C(=O)N[C@@H]2CCCN(c3cc(C4=C(C)C(=O)OC4)n4ncnc(N)c34)C2)s1 [Example 1016, N—((R)-1-(4-amino-7-(4-methyl-5-oxo-2,5-dihydrofuran-3-yl)pyrrolo[2,1-f][1,2,4]triazin-5-yl)piperidin-3-yl)-4-(((1S,4S)-4-(dimethylamino)cyclohexyl)oxy)-2-(methyl-d3)thiazole-5-carboxamide]
1.2 nM	Cc1nccc(-c2cc(N3CCC[C@@H](NC(=O)c4sc(C)nc4OC4CCC(N5CCC5)CC4)C3)c3c(N)ncnn23)n1 (stereo partly drawn) [Example 1037, N—((R)-1-(4-amino-7-(2-methylpyrimidin-4-yl)pyrrolo[2,1-f][1,2,4]triazin-5-yl)piperidin-3-yl)-4-(((1S,4S)-4-(azetidin-1-yl)cyclohexyl)oxy)-2-methylthiazole-5-carboxamide]
1 nM	Cc1nc(O[C@@H]2C[C@H]3CC[C@@H](C2)N3C2CC(O)C2)c(C(=O)N[C@@H]2CCCN(c3cc(-c4ccc(-n5cnnn5)c(F)c4)n4ncnc(N)c34)C2)s1 (stereo partly drawn) [Example 929, N—((R)-1-(4-amino-7-(3-fluoro-4-(1H-tetrazol-1-yl)phenyl)pyrrolo[2,1-f][11,2,4]triazin-5-yl)piperidin-3-yl)-4-(((1R,3s,5S)-8-(3-hydroxycyclobutyl)-8-azabicyclo[3.2.1]octan-3-yl)oxy)-2-methylthiazole-5-carboxamide TFA salt]
1 nM	CN(C)CC(=O)N1CC2CCC1CC2Oc1cc(Cl)sc1C(=O)N[C@@H]1CCCN(c2cc(-c3ccc(-n4cnnn4)nc3)n3ncnc(N)c23)C1 (stereo partly shown) [Example 990]
0.7 nM	Cc1nc(OC2CCC(NC(C)(C)C)CC2)c(C(=O)N[C@@H]2CCCN(c3cc(-c4ccc(C(N)=O)c(F)n4)n4ncnc(N)c34)C2)s1 (stereo partly drawn) [Example 1056, (R)—N-(1-(4-amino-7-(5-carbamoyl-6-fluoropyridin-2-yl)pyrrolo[2,1-f][1,2,4]triazin-5-yl)piperidin-3-yl)-4-((4-(tert-butylamino)cyclohexyl)oxy)-2-methylthiazole-5-carboxamide]
2 nM	Cc1cc(O[C@@H]2C[C@H]3CC[C@@H](C2)N3C)c(C(=O)N[C@@H]2CCCN(c3cc(-c4ccc(-n5cnnn5)c(F)c4)n4ncnc(N)c34)C2)s1 [Example 847, N-((R)-1-(4-amino-7-(3-fluoro-4-(1H-tetrazol-1-yl)phenyl)pyrrolo[2,1-f][1,2,4]triazin-5-yl)piperidin-3-yl)-5-methyl-3-(((1R,3s,5S)-8-methyl-8-azabicyclo[3.2.1]octan-3-yl)oxy)thiophene-2-carboxamide, TFA salt]
2.2 nM	CCNC1CCC(Oc2nc(C)sc2C(=O)N[C@@H]2CCCN(c3cc(C4=C(C)C(=O)OC4)n4ncnc(N)c34)C2)CC1 (stereo partly drawn) [Example 1011, (R)—N-(1-(4-amino-7-(4-methyl-5-oxo-2,5-dihydrofuran-3-yl)pyrrolo[2,1-f][1,2,4]triazin-5-yl)piperidin-3-yl)-4-((4-(ethylamino)cyclohexyl)oxy)-2-methylthiazole-5-carboxamide]
0.9 nM	COc1cc(-c2cc(N3CCC[C@@H](NC(=O)c4sc(C)nc4OC4CCC(N5CCC5)CC4)C3)c3c(N)ncnn23)ccn1 (stereo partly shown) [Example 1038]
1 nM	CN1CCN(c2nccc(C(=O)N[C@@H]3CCCN(c4cc(-c5cc(F)c(-n6cnnn6)c(F)c5)n5ncnc(N)c45)C3)n2)CC1 [Example 854]
0.8 nM	Cc1nccc(-c2cc(N3CCC[C@@H](NC(=O)c4sc(C)nc4O[C@H]4CC[C@@H](N(C)C)CC4)C3)c3c(N)ncnn23)n1 [Example 1035, N—((R)-1-(4-amino-7-(2-methylpyrimidin-4-yl)pyrrolo[2,1-f][1,2,4]triazin-5-yl)piperidin-3-yl)-4-(((1S,4S)-4-(dimethylamino)cyclohexyl)oxy)-2-methylthiazole-5-carboxamide]
2 nM	Cc1nc(OC2CC3CCC2CN3CCO)c(C(=O)N[C@@H]2CCCN(c3cc(-c4cnc(C#N)c(F)c4)n4ncnc(N)c34)C2)s1 (single isomer, unassigned) [Example 993]
3 nM	Cc1nc(O[C@@H]2C[C@H]3CC[C@@H](C2)N3C)c(C(=O)N[C@@H]2CCCN(c3cc(-c4ccc(-n5cnnn5)nc4)n4ncnc(N)c34)C2)s1 [Example 963, N-((R)-1-(7-(6-(1/-tetrazol-1-y1)pyridin-3-y1)-4-aminopyrrolo[2,1-1][1,2,4]triazin-5-y1)piperidin-3-y1)-2-methyl-4-(((IR,35,5S)-8-methy1-8-azabicyclo[3.2 1]octan-3-yl)oxy)thiazole-5-carboxamide]
2 nM	CN1CCN(c2nccc(C(=O)N[C@@H]3CCCN(c4cc(-c5ccc(-n6cnnn6)c(F)c5)n5ncnc(N)c45)C3)n2)CC1 [Example 849, (R)-N-(1-(4-amino-7-(3-fluoro-4-(1H-tetrazol-1-yl)phenyl)pyrrolo[2,1-f][1,2,4]triazin-5-yl)piperidin-3-yl)-2-(4-methylpiperazin-1-yl)pyrimidine-4-carboxamide]
3 nM	CC(C)c1nc(O[C@@H]2C[C@H]3CC[C@@H](C2)N3C)c(C(=O)N[C@@H]2CCCN(c3cc(-c4ccc(=O)n(CC(F)F)c4)n4ncnc(N)c34)C2)s1 [Example 951, N—((R)-1-(4-Amino-7-(1-(2,2-difluoroethyl)-6-oxo-1,6-dihydropyridin-3-yl)pyrrolo[2,1-f][1,2,4]triazin-5-yl)piperidin-3-yl)-2-isopropyl-4-(((1R,3s,5S)-8-methyl-8-azabicyclo[3.2.1]octan-3-yl)oxy)thiazole-5-carboxamide]
5 nM	Cc1nc(OCCCN(C)C)c(C(=O)N[C@@H]2CCCN(c3cc(-c4cnc(-n5cnnn5)c(F)c4)n4ncnc(N)c34)C2)s1 [Example 919, N-[(3R)-1-{4-amino-7-[5-fluoro-6-(1H-1,2,3,4-tetrazol-1-yl)pyridin-3-yl]pyrrolo[2,1-f][1,2,4]triazin-5-yl}piperidin-3-yl]-4-[3-(dimethylamino)propoxy]-2-methyl-1,3-thiazole-5-carboxamide]
2.2 nM	Cc1nc(OC2CCC(NC(C)(C)C)CC2)c(C(=O)N[C@@H]2CCCN(c3cc(-c4ccc(S(C)(=O)=O)cn4)n4ncnc(N)c34)C2)s1 (stereo partly drawn) [Example 1026, (R)—N-(1-(4-amino-7-(5-(methylsulfonyl)pyridin-2-yl)pyrrolo[2,1-f][1,2,4]triazin-5-yl)piperidin-3-yl)-4-((4-(tert-butylamino)cyclohexyl)oxy)-2-methylthiazole-5-carboxamide]

Structure (SMILES)	IC50
Cc1cc(-c2cc(N3CCC[C@@H](NC(=O)c4ccnc(N5CCN(C)CC5)n4)C3)c3c(N)ncnn23)ccc1-n1cnnn1 [Example 850, (R)-N-(1-(4-amino-7-(3-methyl-4-(1H-tetrazol-1-yl)phenyl)pyrrolo[2,1-f][1,2,4]triazin-5-yl)piperidin-3-yl)-2-(4-methylpiperazin-1-yl)pyrimidine-4-carboxamide]	10 nM

target: T2, full length SGK1 (Homo sapiens, UniProt O00141); test: SGK1 inhibition Assay A (Caliper LabChip electrophoretic separation of fluorescent peptide substrate and phosphorylated product); assay type: biochemical; details: Assay A; 20 μM ATP, 40 min incubation; read-out: SGK1 IC50
T2 construct: 125 μM full length SGK1 (Life Technologies Part #PR7358A); purchased Life Technologies PR7358A
T2 sequence (O00141 1-431): T1 sequence (O00141 1-431)

IC50	Structure (SMILES)
6 nM	Nc1ncnn2c(-c3ccnc(C(F)F)c3)cc(N3CCC[C@@H](NC(=O)c4ccc(C(F)F)s4)C3)c12 [Example 482, (R)-N-(1-(4-amino-7-(2-(difluoromethyl)pyridin-4-yl)pyrrolo[2,1-f][1,2,4]triazin-5-yl)piperidin-3-yl)-5-(difluoromethyl)thiophene-2-carboxamide]
